For this test, the target named is NTSR1 (Homo sapiens, UniProt P30989). In words: BRET1 β-arrestin1/2 recruitment to NTSR1, ligand alone. Type of test: cell-based.
NTSR1, sequence (P30989 whole entry): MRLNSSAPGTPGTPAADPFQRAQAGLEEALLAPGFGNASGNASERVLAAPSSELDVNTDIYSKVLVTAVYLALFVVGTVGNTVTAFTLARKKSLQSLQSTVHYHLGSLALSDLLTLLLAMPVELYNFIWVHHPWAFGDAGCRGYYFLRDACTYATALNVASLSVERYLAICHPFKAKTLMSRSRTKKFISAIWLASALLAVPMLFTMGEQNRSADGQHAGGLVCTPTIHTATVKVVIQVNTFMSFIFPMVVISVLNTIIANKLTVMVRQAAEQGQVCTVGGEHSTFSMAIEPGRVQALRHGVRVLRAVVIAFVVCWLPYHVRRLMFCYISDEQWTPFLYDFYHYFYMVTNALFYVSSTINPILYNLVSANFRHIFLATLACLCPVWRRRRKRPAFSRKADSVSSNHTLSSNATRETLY

With `COc1cccc(OC)c1-c1cc(C(=O)NC2(C(=O)O)C3CC4CC(C3)CC2C4)nn1-c1ccc(C(=O)N(C)CCCN(C)C)cc1C(C)C` (centres unmarked) [SR142948A], the “agonist efficacy” value (β-arrestin1) was “without effect” and the “agonist efficacy” value (β-arrestin2) is on record as “without effect”.

(Values after PMC11601581 (bioRxiv, 2024).)
